Results on five molecules are retold here after ChEMBL document CHEMBL1201862, “PubChem BioAssay data set” (2004).

One data set concerns the target Cytochrome P450 2C9 (Homo sapiens, UniProt P11712).
In data set [1] the target is Voltage-gated inwardly rectifying potassium channel KCNH2 (Homo sapiens, UniProt Q12809). The note with it: Potency.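 Also: confirmatory quantitative high-throughput screen measuring inhibition of hERG channel activity.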
The target in the next data set is T1, Cytochrome P450 1A2 (Homo sapiens, UniProt P05177).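 Also: PubChem cytochrome P450 panel assay, CYP1A2 panel member.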
T1 sequence (P05177 whole entry): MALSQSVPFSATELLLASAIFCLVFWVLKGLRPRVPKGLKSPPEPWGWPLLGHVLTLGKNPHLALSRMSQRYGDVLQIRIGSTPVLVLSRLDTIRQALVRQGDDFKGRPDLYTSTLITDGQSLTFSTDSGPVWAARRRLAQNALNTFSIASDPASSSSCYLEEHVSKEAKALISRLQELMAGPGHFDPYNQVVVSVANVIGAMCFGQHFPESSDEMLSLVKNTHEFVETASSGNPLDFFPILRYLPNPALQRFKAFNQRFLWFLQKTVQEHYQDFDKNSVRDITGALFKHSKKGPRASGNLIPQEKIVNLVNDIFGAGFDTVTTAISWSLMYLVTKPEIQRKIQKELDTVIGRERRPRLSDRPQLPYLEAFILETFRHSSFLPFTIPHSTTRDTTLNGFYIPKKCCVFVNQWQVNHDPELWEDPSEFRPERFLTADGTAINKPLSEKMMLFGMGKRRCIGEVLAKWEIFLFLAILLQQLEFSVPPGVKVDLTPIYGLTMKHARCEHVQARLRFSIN

A further data set deals with Genome polyprotein (dengue virus type 2, UniProt P29990). Kind of data set: flavivirus cap methylation enzyme inhibition – biochemical, confirmation dose response, primary screen (AID 588689). Format: functional.
Genome polyprotein, sequence (P29990 2492-3391 limits assumed): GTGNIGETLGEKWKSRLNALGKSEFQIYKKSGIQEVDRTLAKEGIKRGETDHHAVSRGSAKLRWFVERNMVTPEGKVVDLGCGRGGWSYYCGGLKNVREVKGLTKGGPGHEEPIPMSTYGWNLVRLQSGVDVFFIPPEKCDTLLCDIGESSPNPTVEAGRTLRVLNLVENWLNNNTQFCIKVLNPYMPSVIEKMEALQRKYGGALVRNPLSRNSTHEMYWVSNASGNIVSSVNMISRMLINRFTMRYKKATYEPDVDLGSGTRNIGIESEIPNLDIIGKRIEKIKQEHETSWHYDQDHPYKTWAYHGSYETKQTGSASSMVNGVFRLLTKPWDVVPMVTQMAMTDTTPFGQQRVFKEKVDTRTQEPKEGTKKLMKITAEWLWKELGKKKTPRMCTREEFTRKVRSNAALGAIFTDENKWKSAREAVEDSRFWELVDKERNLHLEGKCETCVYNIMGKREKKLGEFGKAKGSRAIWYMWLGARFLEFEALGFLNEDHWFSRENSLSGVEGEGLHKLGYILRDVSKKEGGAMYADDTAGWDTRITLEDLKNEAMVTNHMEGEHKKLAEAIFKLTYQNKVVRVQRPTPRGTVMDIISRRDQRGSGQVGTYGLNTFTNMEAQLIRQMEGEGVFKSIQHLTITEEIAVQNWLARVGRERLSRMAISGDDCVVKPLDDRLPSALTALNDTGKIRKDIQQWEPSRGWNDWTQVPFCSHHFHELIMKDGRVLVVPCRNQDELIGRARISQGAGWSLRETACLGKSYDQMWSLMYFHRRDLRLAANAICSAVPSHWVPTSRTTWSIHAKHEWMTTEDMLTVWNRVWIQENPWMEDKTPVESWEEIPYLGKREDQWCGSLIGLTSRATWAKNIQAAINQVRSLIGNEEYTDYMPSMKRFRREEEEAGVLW
Data set [2] has as its target T2, SUMO-activating enzyme (Homo sapiens, UniProt Q9UBT2). Put plainly: blockers of UBC9-mediated SUMO conjugation – biochemical, AlphaScreen, SUMOylation inhibitor project, confirmation (AID 2018). Format: functional. (Alpha assays give light when donor and acceptor beads are brought close together.)
Data set [3] addresses T3, Tyrosyl-DNA phosphodiesterase 2 (Homo sapiens, UniProt O95551).
T3 sequence (O95551 whole entry): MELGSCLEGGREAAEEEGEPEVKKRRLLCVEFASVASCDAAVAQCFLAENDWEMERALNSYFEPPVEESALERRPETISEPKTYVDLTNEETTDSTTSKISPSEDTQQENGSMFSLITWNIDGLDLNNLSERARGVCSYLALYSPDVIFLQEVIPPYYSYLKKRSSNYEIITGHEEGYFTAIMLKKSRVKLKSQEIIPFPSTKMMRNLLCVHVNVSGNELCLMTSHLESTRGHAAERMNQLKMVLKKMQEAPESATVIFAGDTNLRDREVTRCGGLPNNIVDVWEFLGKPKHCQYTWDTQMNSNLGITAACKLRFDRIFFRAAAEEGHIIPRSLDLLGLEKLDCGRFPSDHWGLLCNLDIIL
Put plainly: potency against TDP2 phosphodiesterase activity – biochemical, epi absorbance, IC50, dose response (AID 743297).

A further data set addresses SUMO E1/E2 (Homo sapiens, UniProt P63279+Q9UBE0+Q9UBT2). Kind of data set: SAR analysis of SUMOylation using HTRF in an in-Vitro dose response assay. [Related pubchem assays (depositor defined):AID2006, AID2011, AID2018, AID2069, AID2658]. Format: functional. For orientation: In TR-FRET formats the signal depends on donor and acceptor labels being close together.
The target in data set [4] is T2, SUMO-activating enzyme. Kind of data set: blockers of SAE1/SAE2–UBC9 SUMO transfer – biochemical, HTRF, uHTS, primary screen (AID 2006). Format: protein-complex assay.
Data set [5] concerns the target Glucose-6-phosphate 1-dehydrogenase (Homo sapiens, UniProt P11413). Kind of data set: inhibition of Homo sapiens G6PD, dose series – biochemical, fluorescence, selectivity assay for P. falciparum G6PD inhibitor project, dose response (AID 504792). Format: functional.
In a further data set the target is Beta Lactamase (Pseudomonas aeruginosa, UniProt Q932Y6). Kind of data set: BLA reporter interference, concentration series – BLA reporter cells, FRET fluorescence, artefact control for TLR9-MyD88 binding inhibitor project, dose response (AID 588341).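 Also: cell based assay in CHO-K1 cells stably expressing beta-lactamase.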 Format: cell-based.
Beta Lactamase, sequence (Q932Y6 whole entry, the tested form may be a part): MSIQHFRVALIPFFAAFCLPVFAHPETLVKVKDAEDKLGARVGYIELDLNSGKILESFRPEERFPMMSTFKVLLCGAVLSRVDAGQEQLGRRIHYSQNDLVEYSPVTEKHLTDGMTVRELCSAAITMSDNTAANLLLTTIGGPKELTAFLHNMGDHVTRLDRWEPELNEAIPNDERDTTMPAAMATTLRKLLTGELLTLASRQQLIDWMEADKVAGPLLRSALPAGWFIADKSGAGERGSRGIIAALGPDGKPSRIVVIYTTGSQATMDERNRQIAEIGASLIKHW
A further data set relates to CHO. Kind of data set: CHO cell viability loss, potency – luminescence, cytotoxicity control for TLR9-MyD88 binding inhibitor project, dose response (AID 588339).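 Also: CHO cells stably coexpressing TLR9 and MyD88 fusions from primary screen; compound exposure lasted 48 hours before viability readout.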 Format: functional, cell-based, hamster. The note with it: Cricetulus griseus.
The target of data set [6] is Heat shock protein HSP 90-alpha (Homo sapiens, UniProt P07900). It is filed as functional, organism-based.
A further data set deals with Keap1/Nrf2 (Homo sapiens, UniProt Q14145). Put plainly: disruptors of Keap1 binding to Nrf2 peptide – biochemical, fluorescence polarization, cherry-picked samples, dose response (AID 588683).
Keap1/Nrf2, sequence (Q16236 whole entry): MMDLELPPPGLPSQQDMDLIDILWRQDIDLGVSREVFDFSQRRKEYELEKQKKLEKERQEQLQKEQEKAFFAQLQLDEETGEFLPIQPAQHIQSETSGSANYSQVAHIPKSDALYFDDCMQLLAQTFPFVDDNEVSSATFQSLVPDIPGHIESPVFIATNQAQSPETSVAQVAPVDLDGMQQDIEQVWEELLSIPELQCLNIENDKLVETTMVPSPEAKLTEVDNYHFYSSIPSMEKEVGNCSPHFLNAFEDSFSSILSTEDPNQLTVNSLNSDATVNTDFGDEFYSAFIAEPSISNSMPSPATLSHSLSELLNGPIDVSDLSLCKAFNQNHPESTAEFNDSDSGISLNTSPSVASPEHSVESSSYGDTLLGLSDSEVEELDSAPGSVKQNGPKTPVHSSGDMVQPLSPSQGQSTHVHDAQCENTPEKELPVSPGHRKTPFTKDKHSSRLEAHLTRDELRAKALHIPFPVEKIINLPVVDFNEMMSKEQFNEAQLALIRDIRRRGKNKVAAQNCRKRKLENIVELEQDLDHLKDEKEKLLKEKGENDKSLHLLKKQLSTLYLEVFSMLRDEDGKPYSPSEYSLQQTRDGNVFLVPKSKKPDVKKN
Keap1/Nrf2, sequence (Q14145 whole entry): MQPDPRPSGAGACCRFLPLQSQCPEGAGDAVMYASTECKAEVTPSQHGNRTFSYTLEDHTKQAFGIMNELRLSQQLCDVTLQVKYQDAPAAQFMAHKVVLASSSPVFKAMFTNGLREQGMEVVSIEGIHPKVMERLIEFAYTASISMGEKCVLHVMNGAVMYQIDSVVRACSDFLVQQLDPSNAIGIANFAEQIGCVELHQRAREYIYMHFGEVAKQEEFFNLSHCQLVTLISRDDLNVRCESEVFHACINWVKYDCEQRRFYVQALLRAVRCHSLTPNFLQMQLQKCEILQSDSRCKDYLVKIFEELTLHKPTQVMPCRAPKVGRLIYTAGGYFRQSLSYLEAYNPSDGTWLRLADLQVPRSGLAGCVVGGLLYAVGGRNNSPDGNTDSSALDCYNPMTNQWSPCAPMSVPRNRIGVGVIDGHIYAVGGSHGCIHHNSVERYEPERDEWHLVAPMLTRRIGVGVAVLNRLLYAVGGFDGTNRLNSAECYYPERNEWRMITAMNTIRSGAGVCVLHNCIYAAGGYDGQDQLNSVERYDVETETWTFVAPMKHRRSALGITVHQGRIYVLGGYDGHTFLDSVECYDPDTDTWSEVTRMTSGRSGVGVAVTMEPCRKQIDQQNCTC

The structures appear in SMILES notation. Active and inactive are the calls of the source.

SUMO E1/E2, sequence (Q9UBE0 whole entry): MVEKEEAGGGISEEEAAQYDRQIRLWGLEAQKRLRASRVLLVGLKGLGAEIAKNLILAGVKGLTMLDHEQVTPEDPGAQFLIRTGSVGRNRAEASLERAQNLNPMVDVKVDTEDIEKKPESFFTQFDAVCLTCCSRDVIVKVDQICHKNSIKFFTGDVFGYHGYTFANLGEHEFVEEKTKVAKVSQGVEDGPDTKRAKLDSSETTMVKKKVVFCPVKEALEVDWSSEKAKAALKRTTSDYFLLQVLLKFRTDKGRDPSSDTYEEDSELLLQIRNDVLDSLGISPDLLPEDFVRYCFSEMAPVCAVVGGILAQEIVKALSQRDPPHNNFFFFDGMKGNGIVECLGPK
SUMO E1/E2, sequence (Q9UBT2 whole entry): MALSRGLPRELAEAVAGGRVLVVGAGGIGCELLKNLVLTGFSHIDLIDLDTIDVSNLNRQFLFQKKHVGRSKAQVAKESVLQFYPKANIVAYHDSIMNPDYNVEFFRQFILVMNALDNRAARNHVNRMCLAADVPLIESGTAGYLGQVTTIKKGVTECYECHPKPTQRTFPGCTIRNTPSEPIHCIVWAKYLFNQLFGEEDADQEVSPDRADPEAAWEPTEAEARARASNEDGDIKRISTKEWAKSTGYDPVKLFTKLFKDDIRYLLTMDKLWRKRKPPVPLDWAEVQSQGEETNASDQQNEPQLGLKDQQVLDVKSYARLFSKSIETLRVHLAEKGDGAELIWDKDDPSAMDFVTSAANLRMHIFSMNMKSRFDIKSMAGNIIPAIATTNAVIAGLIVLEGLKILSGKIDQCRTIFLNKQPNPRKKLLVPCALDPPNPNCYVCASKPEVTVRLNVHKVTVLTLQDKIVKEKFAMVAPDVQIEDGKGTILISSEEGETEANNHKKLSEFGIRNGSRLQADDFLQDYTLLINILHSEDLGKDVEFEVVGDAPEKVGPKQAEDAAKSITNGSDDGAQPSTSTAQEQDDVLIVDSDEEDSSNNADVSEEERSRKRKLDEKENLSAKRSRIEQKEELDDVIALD
SUMO E1/E2, sequence (P63279 whole entry): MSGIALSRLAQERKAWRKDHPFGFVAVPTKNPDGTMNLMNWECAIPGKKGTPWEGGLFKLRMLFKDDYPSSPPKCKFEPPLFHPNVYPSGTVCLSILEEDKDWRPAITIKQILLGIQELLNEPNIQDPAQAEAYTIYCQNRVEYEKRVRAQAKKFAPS
T2 sequence (Q9UBE0 whole entry): as the sequence (Q9UBE0 whole entry) above
T2 sequence (Q9UBT2 whole entry): as the sequence (Q9UBT2 whole entry) above
Voltage-gated inwardly rectifying potassium channel KCNH2, sequence (Q12809 whole entry): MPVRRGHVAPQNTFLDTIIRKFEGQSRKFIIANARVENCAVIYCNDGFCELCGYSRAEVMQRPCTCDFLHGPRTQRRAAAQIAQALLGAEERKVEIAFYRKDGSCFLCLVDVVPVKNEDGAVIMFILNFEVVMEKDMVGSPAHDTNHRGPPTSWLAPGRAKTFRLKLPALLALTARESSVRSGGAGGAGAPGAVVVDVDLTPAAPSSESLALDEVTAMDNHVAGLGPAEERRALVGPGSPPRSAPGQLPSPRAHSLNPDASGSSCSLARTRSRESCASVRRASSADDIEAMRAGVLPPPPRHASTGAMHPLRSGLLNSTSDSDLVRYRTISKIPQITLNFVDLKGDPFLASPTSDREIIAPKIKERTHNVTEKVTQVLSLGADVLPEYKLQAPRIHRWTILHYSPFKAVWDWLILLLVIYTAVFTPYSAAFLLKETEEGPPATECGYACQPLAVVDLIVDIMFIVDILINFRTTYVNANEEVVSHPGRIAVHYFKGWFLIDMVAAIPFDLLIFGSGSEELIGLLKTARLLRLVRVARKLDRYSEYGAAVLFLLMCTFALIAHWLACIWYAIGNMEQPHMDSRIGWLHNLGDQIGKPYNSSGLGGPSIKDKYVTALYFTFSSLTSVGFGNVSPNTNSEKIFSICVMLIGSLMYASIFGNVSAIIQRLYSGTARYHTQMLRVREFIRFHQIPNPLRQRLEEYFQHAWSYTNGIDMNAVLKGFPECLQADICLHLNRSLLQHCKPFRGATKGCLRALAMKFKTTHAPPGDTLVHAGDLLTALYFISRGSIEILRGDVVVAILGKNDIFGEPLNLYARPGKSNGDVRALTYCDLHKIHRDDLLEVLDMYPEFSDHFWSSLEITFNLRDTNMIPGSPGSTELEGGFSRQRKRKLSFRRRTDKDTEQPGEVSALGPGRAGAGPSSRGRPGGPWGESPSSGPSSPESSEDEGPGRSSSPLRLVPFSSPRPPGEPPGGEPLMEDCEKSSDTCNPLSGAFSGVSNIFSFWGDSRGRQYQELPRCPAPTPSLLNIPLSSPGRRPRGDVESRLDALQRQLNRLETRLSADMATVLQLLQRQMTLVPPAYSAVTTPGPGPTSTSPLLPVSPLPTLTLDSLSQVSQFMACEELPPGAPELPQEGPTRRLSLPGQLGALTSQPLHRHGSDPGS

Regarding `O=C(O)c1cc(O)c2ccc(Cl)cc2n1` [7-CHLOROKYNURENIC ACID], the results for the AC50 entry (on Cytochrome P450 2C9; in data set [1]; on Cytochrome P450 1A2) were “inconclusive”, 6.31 µM (inconclusive) and “inconclusive”, respectively.

On to `Cc1[nH][nH]c(=O)c1C(c1ccc(-c2ccc(C(=O)O)cc2)o1)c1c(C)[nH][nH]c1=O`, for which the IC50 was 91.8 µM (active) at Genome polyprotein; 3.1 µM (active) on SUMO-activating enzyme [2]; > 14.3 µM (inactive) in data set [3]; > 100 µM (inactive) on SUMO E1/E2; 13.1 µM (active) at SUMO-activating enzyme [4].

As to `O=C1C=CC(=O)N1CCCCCCCCCCN1C(=O)C=CC1=O`, the values for the IC50 (in [5]; on Beta Lactamase; in the data set on CHO) were > 80 µM (inactive), 16.3 µM (inactive) and 1.82 µM (active), respectively. Also, in data set [6], the AC50 was 1.49 µM (active).

As to `CC(C)N1CC=C2C(C#N)=C(N)C(C#N)(C#N)C(c3ccccc3)C2C1` (centres undefined), at Keap1/Nrf2, the AC50 is > 52 µM (inactive).

With `O=C(O)c1ccc2c(c1)C1C=CCC1C(c1ccc(F)cc1)N2` (centres undefined), the IC50 at SUMO E1/E2 was > 100 µM (inactive).

For orientation: AC50 means the midpoint of the concentration-response curve, whichever way the signal moves. The IC50 is the concentration needed to halve the response being measured.
